The target in assay [1] is Mitogen-activated protein kinase 1 (Rattus norvegicus, UniProt P63086). The assay is described as follows: Kinase Inhibition Assay. The settings on record: pH 7.5; 37 °C.
Assay [2] concerns the target Mitogen-activated protein kinase 14 (Homo sapiens, UniProt Q16539). Put plainly: Kinase Inhibition Assay. The settings on record: pH 7.5; 37 °C.

pIC50: −log10 of the molar value.

By pIC50 is commonly meant the IC50 on a negative log10 scale, so that one unit is a factor of ten.

Chain of Mitogen-activated protein kinase 1 (P63086 whole entry): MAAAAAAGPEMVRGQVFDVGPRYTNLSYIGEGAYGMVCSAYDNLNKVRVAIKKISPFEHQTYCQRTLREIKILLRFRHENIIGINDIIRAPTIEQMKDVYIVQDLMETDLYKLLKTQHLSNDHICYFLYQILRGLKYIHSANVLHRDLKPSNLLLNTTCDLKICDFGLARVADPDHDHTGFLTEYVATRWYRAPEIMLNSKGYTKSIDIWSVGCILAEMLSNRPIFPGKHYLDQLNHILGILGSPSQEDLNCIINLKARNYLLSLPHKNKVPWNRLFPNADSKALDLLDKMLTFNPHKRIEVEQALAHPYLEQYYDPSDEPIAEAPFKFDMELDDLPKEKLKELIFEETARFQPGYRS
Chain of Mitogen-activated protein kinase 14 (Q16539 whole entry): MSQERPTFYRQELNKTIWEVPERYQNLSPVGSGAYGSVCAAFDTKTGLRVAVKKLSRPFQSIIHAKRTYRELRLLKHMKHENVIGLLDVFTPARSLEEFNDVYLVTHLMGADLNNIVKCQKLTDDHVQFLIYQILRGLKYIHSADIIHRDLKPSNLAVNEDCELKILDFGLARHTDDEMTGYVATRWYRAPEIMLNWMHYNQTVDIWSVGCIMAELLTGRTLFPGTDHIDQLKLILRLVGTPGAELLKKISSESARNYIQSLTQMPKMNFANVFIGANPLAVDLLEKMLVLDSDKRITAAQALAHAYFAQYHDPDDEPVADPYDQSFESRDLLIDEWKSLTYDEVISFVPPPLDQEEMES

Consider `Cn1cnc2c(NCc3ccccc3)nc(NCCO)nc21` [2,6,9-Trisubstituted purine deriv. 26], for which the pIC50 was 4.57 in assay [1] and below 4.00 in assay [2].

With `C[S+]([O-])c1ccc(-c2nc(-c3ccncc3)c(-c3ccc(F)cc3)[nH]2)cc1` (stereo not drawn) [4-{4-(4-fluorophenyl)-2-[4-(methylsulfinyl)phenyl]-1H-imidazol-5-yl}pyridine], the pIC50 in assay [1] is below 3.00.

Source of the values: BindingDB's records for doi:10.1016/s0969-2126(98)00113-0 (University of Texas At Dallas, 1998).
